Experiments:
Assay type in all cases: cell-based
[1] = target: p-EGFR Del19/C797S (H1975-clone #23 cells) (Homo sapiens, UniProt P00533); assay: Cell p-EGFR inhibition assay, HTRF, H1975-clone#23 (DEL19/C797S) cells; settings: 16 h treatment; for Imax (%): maximum percentage of pEGFR inhibition; for IC50: pEGFR inhibition
Procedure, shortened: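 Phospho-EGFR read by overnight HTRF on lysates, normalized to DMSO-treated high control; IC50, Hill slope and Imax fitted. Compounds were applied for 16 h (10 uM top, 5-fold steps, 8 doses) to an H1975 single clone carrying only exogenous Del19/C797S EGFR after sgRNA knockout of endogenous copies.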

[2] = target: T1, p-EGFR L858R (BaF3-L858R cells) (Homo sapiens, UniProt P00533, L858R); assay: Cell p-EGFR inhibition assay, HTRF, BaF3-L858R cells; settings: 16 h treatment; for Imax (%): maximum percentage of pEGFR inhibition; for IC50: pEGFR inhibition
T1 construct: host or cells: BaF3
Procedure, shortened: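 BaF3-L858R cells treated 16 h at 37 °C, 5% CO2 with compound from 10 uM top, 5-fold dilutions, 8 doses, in 0.1% DMSO medium. Lysates read overnight by HTRF p-EGFR antibodies; IC50 fitted to four-parameter curve against DMSO high control.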

[3] = target: T2, EGFR-L858R/C797S (H1975-clone #8 cells) (Homo sapiens, UniProt P00533, C797S/L858R); assay: Cell degradation of EGFR, HTRF assay, H1975-clone#8 (L858R/C797S) cells; settings: 16 h treatment; for DC50: EGFR degradation; for Dmax (%) / Dmax: maximum percentage of degradation
T2 construct: expressed in transfected cells; host or cells: H1975 (endogenous EGFR knocked out, clone #8)

[4] = target: T3, EGFR L858R (BaF3-L858R cells) (Homo sapiens, UniProt P00533, L858R); assay: Cell degradation of EGFR, HTRF assay, BaF3-L858R cells; settings: 16 h treatment; for DC50: EGFR degradation; for Dmax (%) / Dmax: maximum percentage of degradation
T3 construct: host or cells: BaF3
Procedure, shortened: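 BaF3-L858R cells treated 16 h at 37° C, 5% CO2 with compound (top 10 uM final, 5-fold, 8 doses, 0.1% DMSO). DC50 from four-parameter fit; Dmax is maximum percent degradation.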

Imax (%) [1] [%] | IC50 [1] [nM] | Imax (%) [2] [%] | IC50 [2] [nM] | DC50 [3] [nM] | DC50 [4] [nM] | Dmax [3] [%] | Dmax [4] [%] | Compound | Dmax (%) [3] [%] | Dmax (%) [4] [%]
100.1 | 1.8 | 99.9 | 5.7 | 5.24 | 3.2 | 62.4 | 89.3 | COC[C@@H]1CN(c2ccc3c(c2)N2C[C@@H]4CC[C@H](COc5c(cnn5C)-c5cc(cc(C)n5)C(=O)/N=C/2N3)C4)CCN1CC1CN(c2ccc3c(c2)C(=O)N(C2CCC(=O)NC2=O)C3=O)C1 (stereo partly drawn) [Example 69, 5-(3-(((S)-4-((7^1R,7^3S,E)-1^1,2^6-dimethyl-3-oxo-5^2,5^3-dihydro-1^1H,5^1H-9-oxa-4-aza-5(2,1)-benzo[d]imidazola-2(2,4)-pyridina-1(4,5)-pyrazola-7(1,3)-cyclopentanacyclononaphane-5^6-yl)-2-(methoxymethyl)piperazin-1-yl)methyl)azetidin-1-yl)-2-(2,6-dioxopiperidin-3-yl)isoindoline-1,3-dione] | – | –
100.85 | 4.06 | 101.7 | 4.89 | 6.07 | 9.26 | 81.9 | 88.8 | COC[C@@H]1CN(c2ccc3c(c2)N2CC4CC[C@H](COc5c(c(C)nn5C)-c5cc(cc(C)n5)C(=O)/N=C/2N3)C4)CCN1CC1CCN(c2cc(F)c([C@H]3CCC(=O)NC3=O)c(F)c2)CC1 [Example 127, (R)-3-(2,6-difluoro-4-(4-(((S)-2-(methoxymethyl)-4-((7^1R,7^3S,E)-1^1,1^3,2^6-trimethyl-3-oxo-5^2,5^3-dihydro-1^1H,5^1H-9-oxa-4-aza-5(2,1)-benzo[d]imidazola-2(2,4)-pyridina-1(4,5)-pyrazola-7(1,3)-cyclopentanacyclononaphane-5^6-yl)piperazin-1-yl)methyl)piperidin-1-yl)phenyl)piperidine-2,6-dione] | – | –
101.4 | 0.3 | 92.7 | 1.1 | 0.48 | 0.41 | 91.7 | 92.6 | Cc1cc2cc(n1)-c1c(C)nn(C)c1OC[C@H]1CCC(C1)CN1/C(=N/C2=O)Nc2ccc(N3CCN([C@@H]4CCN(c5ccc(C6CCC(=O)NC6=O)nc5C)C[C@@H]4F)CC3)cc21 (stereo partly drawn) [Example 79, 3-(5-((3S,4R)-3-fluoro-4-(4-((7^1R,7^3S,E)-1^1,1^3,2^6-trimethyl-3-oxo-5^2,5^3-dihydro-1^1H,5^1H-9-oxa-4-aza-5(2,1)-benzo[d]imidazola-2(2,4)-pyridina-1(4,5)-pyrazola-7(1,3)-cyclopentanacyclononaphane-5^6-yl)piperazin-1-yl)piperidin-1-yl)-6-methylpyridin-2-yl)piperidine-2,6-dione] | – | –
98.9 | 0.4 | 104.4 | 15.4 | 0.41 | 2.2 | 67.5 | 72.8 | Cc1cc2cc(n1)-c1cnn(C)c1OC[C@H]1CC[C@H](C1)CN1/C(=N/C2=O)Nc2ccc(N3CCC(N4CC(Nc5cc(F)c([C@H]6CCC(=O)NC6=O)c(F)c5)C4)CC3)cc21 [Example 112, (R)-3-(4-((1-(1-((7^1R,7^3S,E)-1^1,2^6-dimethyl-3-oxo-5^2,5^3-dihydro-1^1H,5^1H-9-oxa-4-aza-5(2,1)-benzo[d]imidazola-2(2,4)-pyridina-1(4,5)-pyrazola-7(1,3)-cyclopentanacyclononaphane-5^6-yl)piperidin-4-yl)azetidin-3-yl)amino)-2,6-difluorophenyl)piperidine-2,6-dione] | – | –

Compound | Imax (%) [1] [%] | IC50 [1] [nM] | Imax (%) [2] [%] | IC50 [2] [nM] | DC50 [3] [nM] | DC50 [4] [nM] | Dmax [3] [%] | Dmax [4] [%] | Dmax (%) [3] [%] | Dmax (%) [4] [%]
3-((5-(4-((S)-2-(methoxymethyl)-4-((7^1R,7^3S,E)-1^1,1^3,2^6-trimethyl-3-oxo-5^2,5^3-dihydro-1^1H,5^1H-9-oxa-4-aza-5(2,1)-benzo[d]imidazola-2(2,4)-pyridina-1(4,5)-pyrazola-7(1,3)-cyclopentanacyclononaphane-5^6-yl)piperazin-1-yl)piperidin-1-yl)-4,6-dimethylpyridin-2-yl)oxy)piperidine-2,6-dione [Example 167] | 102.84 | 3.01 | 98.09 | 6.86 | 4.33 | 4.72 | – | – | 88.56 | 83.25
3-(5-(4-((S)-4-((7^1R,7^3S,E)-1^1,2^6-dimethyl-3-oxo-5^2,5^3-dihydro-1^1H,5^1H-9-oxa-4-aza-5(2,1)-benzo[d]imidazola-2(2,4)-pyridina-1(4,5)-pyrazola-7(1,3)-cyclopentanacyclononaphane-5^6-yl)-2-methylpiperazin-1-yl)piperidin-1-yl)-6-methylpyridin-2-yl)piperidine-2,6-dione [Example 214] | 100.03 | 0.604 | 100.54 | 3.32 | 0.61 | 0.65 | – | – | 77.32 | 82.61

— patent US20240425523A1, “Compounds for the Degradation of EGFR Kinase” (Beigene Switzerland GMBH, priority 2023, published 2024)
